Patent publication US6664419B1, “Method and device for purifying substances by means of crystallization” (Stockhausen GmbH & Co. KG, priority 1999, dated 2003)
Where two headings read alike, the source gives them in different places.

Test: Solubility limit of impurity in molten acrylic acid
Format: physicochemical
From the text: In addition to other impurities, acrylic acid pre-purified by distillation may contain maleic acid, its anhydride, and phenothiazine which precipitate from the molten material at concentrations of more than 4% (maleic acid) and 1.5% (phenothiazine), respectively. The respective amounts of solid precipitating during a crystallization process as a result of surpassing the solubility limit can be inferred from the following Examples (Table 1 and 2).
The solubility of maleic acid in acrylic acid is about 4%. The residue (13.2 kg) contains 20.4% or 2.7 kg of maleic acid, 2.4 kg of which precipitates as a solid as a result of surpassing the solubility limit.

Row | solubility in acrylic acid | Compound | solubility in acrylic acid (in acrylic acid melt / mother liquor, precipitates above this concentration)
1 |  | c1ccc2c(c1)Nc1ccccc1S2 [PTZ, phenothiazine] | about 1.5%
2 | about 4% | O=C(O)/C=C\C(=O)O [maleic acid] | 
